Experimental data as given in article PMC8016998, “Identification of potential therapeutic antimicrobial peptides against Acinetobacter baumannii in a mouse model of pneumonia” (Scientific Reports, 2021).
In brackets after ≈: the same amount, converted by molar mass. Where two headings read alike, the source gives them in different places. Values belong to the compound of their own block, whether it stands above or below them. No end group written: not given here.

Tests used:
[1] = tested on: MDRAB clinical strain AK29; assay type: cell-based, Acinetobacter baumannii
Procedure: (§1) MBC were determined by extending the MIC procedure in sterilized 96-well polypropylene microtiter plates according to the broth microdilution guidelines of the Clinical and Laboratory Standards Institute with some modification[47]. […] In addition, 10 µL was drawn from each well with no visible turbidity onto LB agar plates and incubated for 24 h at 37 °C. The lowest concentration showing no visible growth on agar subculture was used as the MBC value. All experiments were performed in triplicate.

[2] = tested on: MDRAB clinical strain AN10; assay type: cell-based, Acinetobacter baumannii
Procedure: as §1

[3] = tested on: MDRAB clinical strain W11; assay type: cell-based, Acinetobacter baumannii
Procedure: as §1

[4] = tested on: MDRAB clinical strain AS40; assay type: cell-based, Acinetobacter baumannii
Procedure: as §1

[5] = tested on: MDRAB clinical strain AG51; assay type: cell-based, Acinetobacter baumannii
Procedure: as §1

[6] = tested on: MDRAB clinical strain U95; assay type: cell-based, Acinetobacter baumannii
Procedure: as §1

MDRAB clinical strains = assay type: cell-based, Acinetobacter baumannii
Procedure: as §1

[7] = tested on: MDRAB clinical strain AL87; assay type: cell-based, Acinetobacter baumannii
Procedure: as §1

[8] = tested on: Acinetobacter baumannii 19,606; assay type: cell-based
Procedure: as §1

MDRAB clinical strain K2 = assay type: cell-based, Acinetobacter baumannii
Procedure: as §1

[9] = tested on: MDRAB clinical strain U80; assay type: cell-based, Acinetobacter baumannii
Procedure: as §1

[10] = tested on: Acinetobacter baumannii 17,978; assay type: cell-based;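 note: CLSI broth microdilution in 96-well polypropylene plates, MBC taken as lowest concentration giving no growth when clear wells were subcultured on LB agar for 24 h at 37 °C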
Procedure: as §1

[11] = tested on: MDRAB clinical strain J49; assay type: cell-based, Acinetobacter baumannii
[12] = tested on: MDRAB clinical strain AE5; assay type: cell-based, Acinetobacter baumannii
Procedure: as §1

[13] = tested on: MDRAB clinical strain AF11; assay type: cell-based, Acinetobacter baumannii
Procedure: as §1

[14] = tested on: MDRAB clinical strain Y92; assay type: cell-based, Acinetobacter baumannii
[15] = tested on: MDRAB clinical strain AF93; assay type: cell-based, Acinetobacter baumannii
Procedure: as §1

[16] = tested on: MDRAB clinical strain D29; assay type: cell-based, Acinetobacter baumannii
[17] = tested on: MDRAB clinical strain O59; assay type: cell-based, Acinetobacter baumannii
Procedure: as §1

[18] = tested on: MDRAB clinical strain AF12; assay type: cell-based, Acinetobacter baumannii
Procedure: as §1

[19] = tested on: MDRAB clinical strain AK61; assay type: cell-based, Acinetobacter baumannii
Procedure: as §1

[20] = tested on: MDRAB clinical strain AO80; assay type: cell-based, Acinetobacter baumannii
Procedure: as §1

[21] = tested on: MDRAB clinical strain L87; assay type: cell-based, Acinetobacter baumannii
Procedure: as §1

[22] = tested on: MDRAB clinical strain AE6; assay type: cell-based, Acinetobacter baumannii
[23] = tested on: MDRAB clinical strain AZ93; assay type: cell-based, Acinetobacter baumannii
Procedure: as §1

[24] = 10 µL from wells without turbidity onto LB agar, 24 h at 37 °C, triplicate

Compound: CC[C@H](C)[C@H](NC(=O)CNC(=O)[C@@H](NC(=O)[C@H](CCCCN)NC(=O)[C@H](CCCCN)NC(=O)[C@H](Cc1ccccc1)NC(=O)[C@H](CC(C)C)NC(=O)[C@H](CCCCN)NC(=O)[C@H](Cc1c[nH]c2ccccc12)NC(=O)[C@@H](N)CCCCN)[C@@H](C)CC)C(=O)NCC(=O)N[C@@H](C)C(=O)N[C@H](C(=O)N[C@@H](CC(C)C)C(=O)N[C@@H](CCCCN)C(=O)N[C@H](C(=O)N[C@@H](CC(C)C)C(=O)N[C@H](C(=O)N[C@H](C(=O)NCC(N)=O)[C@@H](C)O)[C@@H](C)O)C(C)C)C(C)C [CAME]
MIC ([1]; strain AK29, broth microdilution, LB, 24 h 37 °C): 8 µg/mL (≈ 3.64 µM)
MBC ([1]; strain AK29, subculture on LB agar, 24 h 37 °C): 16 µg/mL (≈ 7.27 µM)
MIC ([2]; strain AN10, broth microdilution, LB, 24 h 37 °C): 16 µg/mL (≈ 7.27 µM)
MBC ([2]; strain AN10, subculture on LB agar, 24 h 37 °C): 32 µg/mL (≈ 14.5 µM)
MIC ([3]; strain W11, broth microdilution, LB, 24 h 37 °C): 16 µg/mL (≈ 7.27 µM)
MBC ([3]; strain W11, subculture on LB agar, 24 h 37 °C): 32 µg/mL (≈ 14.5 µM)
MIC ([4]; strain AS40, broth microdilution, LB, 24 h 37 °C): 8 µg/mL (≈ 3.64 µM)
MBC ([4]; strain AS40, subculture on LB agar, 24 h 37 °C): 8 µg/mL (≈ 3.64 µM)
MIC ([5]; strain AG51, broth microdilution, LB, 24 h 37 °C): 16 µg/mL (≈ 7.27 µM)
MBC ([5]; strain AG51, subculture on LB agar, 24 h 37 °C): 32 µg/mL (≈ 14.5 µM)
MIC ([6]; strain U95, broth microdilution, LB, 24 h 37 °C): 32 µg/mL (≈ 14.5 µM)
MBC ([6]; strain U95, subculture on LB agar, 24 h 37 °C): 64 µg/mL (≈ 29.1 µM)
MIC (MDRAB clinical strains; range over MDRAB clinical strains (details in Supplementary Table 2), broth microdilution, LB, 24 h 37 °C): 8 to 32 µg/mL
MBC (MDRAB clinical strains; range over MDRAB clinical strains (details in Supplementary Table 2), subculture on LB agar, 24 h 37 °C): 8 to 64 µg/mL
MIC ([7]; strain AL87, broth microdilution, LB, 24 h 37 °C): 32 µg/mL (≈ 14.5 µM)
MBC ([7]; strain AL87, subculture on LB agar, 24 h 37 °C): 32 µg/mL (≈ 14.5 µM)
MBC [8, 24]: 32 µg/mL (≈ 14.5 µM)
MIC ([8]; broth microdilution (CLSI, modified), LB medium, 5 × 10^5 CFU/mL, 24 h at 37 °C, triplicate): 32 µg/mL (≈ 14.5 µM)
MIC (MDRAB clinical strain K2; strain K2, broth microdilution, LB, 24 h 37 °C): 8 µg/mL (≈ 3.64 µM)
MBC (MDRAB clinical strain K2; strain K2, subculture on LB agar, 24 h 37 °C): 16 µg/mL (≈ 7.27 µM)
MIC ([9]; strain U80, broth microdilution, LB, 24 h 37 °C): 16 µg/mL (≈ 7.27 µM)
MBC ([9]; strain U80, subculture on LB agar, 24 h 37 °C): 32 µg/mL (≈ 14.5 µM)
MBC [10, 24]: 32 µg/mL (≈ 14.5 µM)
MIC ([10]; broth microdilution (CLSI, modified), LB medium, 5 × 10^5 CFU/mL, 24 h at 37 °C, lowest concentration with no visible growth, triplicate): 32 µg/mL (≈ 14.5 µM)
MIC ([11]; strain J49, broth microdilution, LB, 24 h 37 °C): 16 µg/mL (≈ 7.27 µM)
MBC ([11]; strain J49, subculture on LB agar, 24 h 37 °C): 32 µg/mL (≈ 14.5 µM)
MIC ([12]; strain AE5, broth microdilution, LB, 24 h 37 °C): 32 µg/mL (≈ 14.5 µM)
MBC ([12]; strain AE5, subculture on LB agar, 24 h 37 °C): 32 µg/mL (≈ 14.5 µM)
MIC ([13]; strain AF11, broth microdilution, LB, 24 h 37 °C): 16 µg/mL (≈ 7.27 µM)
MBC ([13]; strain AF11, subculture on LB agar, 24 h 37 °C): 32 µg/mL (≈ 14.5 µM)
MIC ([14]; strain Y92, broth microdilution, LB, 24 h 37 °C): 32 µg/mL (≈ 14.5 µM)
MBC ([14]; strain Y92, subculture on LB agar, 24 h 37 °C): 32 µg/mL (≈ 14.5 µM)
MIC ([15]; strain AF93, broth microdilution, LB, 24 h 37 °C): 32 µg/mL (≈ 14.5 µM)
MBC ([15]; strain AF93, subculture on LB agar, 24 h 37 °C): 32 µg/mL (≈ 14.5 µM)
MIC ([16]; strain D29, broth microdilution, LB, 24 h 37 °C): 32 µg/mL (≈ 14.5 µM)
MBC ([16]; strain D29, subculture on LB agar, 24 h 37 °C): 32 µg/mL (≈ 14.5 µM)
MIC ([17]; strain O59, broth microdilution, LB, 24 h 37 °C): 32 µg/mL (≈ 14.5 µM)
MBC ([17]; strain O59, subculture on LB agar, 24 h 37 °C): 64 µg/mL (≈ 29.1 µM)
MIC ([18]; strain AF12, broth microdilution, LB, 24 h 37 °C): 16 µg/mL (≈ 7.27 µM)
MBC ([18]; strain AF12, subculture on LB agar, 24 h 37 °C): 16 µg/mL (≈ 7.27 µM)
MIC ([19]; strain AK61, broth microdilution, LB, 24 h 37 °C): 8 µg/mL (≈ 3.64 µM)
MBC ([19]; strain AK61, subculture on LB agar, 24 h 37 °C): 16 µg/mL (≈ 7.27 µM)
MIC ([20]; strain AO80, broth microdilution, LB, 24 h 37 °C): 8 µg/mL (≈ 3.64 µM)
MBC ([20]; strain AO80, subculture on LB agar, 24 h 37 °C): 16 µg/mL (≈ 7.27 µM)
MIC ([21]; strain L87, broth microdilution, LB, 24 h 37 °C): 32 µg/mL (≈ 14.5 µM)
MBC ([21]; strain L87, subculture on LB agar, 24 h 37 °C): 64 µg/mL (≈ 29.1 µM)
MIC ([22]; strain AE6, broth microdilution, LB, 24 h 37 °C): 32 µg/mL (≈ 14.5 µM)
MBC ([22]; strain AE6, subculture on LB agar, 24 h 37 °C): 32 µg/mL (≈ 14.5 µM)
MIC ([23]; strain AZ93, broth microdilution, LB, 24 h 37 °C): 8 µg/mL (≈ 3.64 µM)
MBC ([23]; strain AZ93, subculture on LB agar, 24 h 37 °C): 8 µg/mL (≈ 3.64 µM)

MIC ([1]; 24 h): 8 µg/mL
MIC ([2]; 24 h): 8 µg/mL
MIC ([3]; 24 h): 16 µg/mL
MIC ([4]; 24 h): 8 µg/mL
MIC ([5]; 24 h): 8 µg/mL
MIC ([6]; 24 h): 32 µg/mL
MIC (MDRAB clinical strains; 24 h): 8 to 32 µg/mL
MIC ([7]; 24 h): 8 µg/mL
MIC ([8]; 19,606, 24 h): 8 µg/mL
MIC (MDRAB clinical strain K2; 24 h): 32 µg/mL
MIC ([9]; 24 h): 16 µg/mL
MIC ([10]; 17,978, 24 h): 32 µg/mL
MIC ([11]; 24 h): 16 µg/mL
MIC ([12]; 24 h): 16 µg/mL
MIC ([13]; 24 h): 16 µg/mL
MIC ([14]; 24 h): 16 µg/mL
MIC ([15]; 24 h): 16 µg/mL
MIC ([16]; 24 h): 16 µg/mL
MIC ([17]; 24 h): 32 µg/mL
MIC ([18]; 24 h): 8 µg/mL
MIC ([19]; 24 h): 8 µg/mL
MIC ([20]; 24 h): 8 µg/mL
MIC ([21]; 24 h): 16 µg/mL
MIC ([22]; 24 h): 16 µg/mL
MIC ([23]; 24 h): 8 µg/mL
Compound: GAKYAKIIYNYLKKIANALW [GW-A2]
MBC ([1]; 24 h): 8 µg/mL
MBC ([2]; 24 h): 8 µg/mL
MBC ([3]; 24 h): 16 µg/mL
MBC ([4]; 24 h): 16 µg/mL
MBC ([5]; 24 h): 8 µg/mL
MBC ([6]; 24 h): 64 µg/mL
MBC (MDRAB clinical strains; 24 h): 8 to 64 µg/mL
MBC ([7]; 24 h): 8 µg/mL
MBC ([8]; 19,606, 24 h): 8 µg/mL
MBC (MDRAB clinical strain K2; 24 h): 64 µg/mL
MBC ([9]; 24 h): 16 µg/mL
MBC ([10]; 17,978, 24 h): 32 µg/mL
MBC ([11]; 24 h): 16 µg/mL
MBC ([12]; 24 h): 16 µg/mL
MBC ([13]; 24 h): 32 µg/mL
MBC ([14]; 24 h): 16 µg/mL
MBC ([15]; 24 h): 16 µg/mL
MBC ([16]; 24 h): 16 µg/mL
MBC ([17]; 24 h): 32 µg/mL
MBC ([18]; 24 h): 8 µg/mL
MBC ([19]; 24 h): 8 µg/mL
MBC ([20]; 24 h): 16 µg/mL
MBC ([21]; 24 h): 16 µg/mL
MBC ([22]; 24 h): 32 µg/mL
MBC ([23]; 24 h): 16 µg/mL
